Structures can show the parent of a compound that is named as a salt. Where two headings read alike, the source gives them in different places.

For test [1], the target named is T1, α-1A adrenoreceptor (rat submaxillary gland) (Rattus norvegicus, UniProt P43140).
T1 construct: Rat submaxillary glands were used for α-1A adrenoreceptors; from tissue; host or cells: rat submaxillary gland membranes
T1 sequence (P43140 1-466): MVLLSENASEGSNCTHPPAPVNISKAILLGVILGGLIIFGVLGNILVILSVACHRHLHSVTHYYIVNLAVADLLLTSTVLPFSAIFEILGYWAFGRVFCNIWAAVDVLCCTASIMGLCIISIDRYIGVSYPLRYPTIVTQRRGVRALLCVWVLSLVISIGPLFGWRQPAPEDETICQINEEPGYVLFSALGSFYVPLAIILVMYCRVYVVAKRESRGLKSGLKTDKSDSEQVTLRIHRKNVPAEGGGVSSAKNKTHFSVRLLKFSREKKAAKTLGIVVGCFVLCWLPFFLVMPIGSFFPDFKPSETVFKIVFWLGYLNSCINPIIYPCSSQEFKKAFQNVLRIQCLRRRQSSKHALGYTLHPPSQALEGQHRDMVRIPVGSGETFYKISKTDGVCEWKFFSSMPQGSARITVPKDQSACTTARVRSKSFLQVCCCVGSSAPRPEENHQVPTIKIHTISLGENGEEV
The experiment in a line: In vitro [3H]-prazosin radioligand binding, pharmacologically defined α-1A adrenoreceptor (rat submaxillary gland). The protocol:
Additionally, binding affinity against the pharmacologically defined α-1A adrenoreceptor (rat submaxillary gland) was measured.
On the fifth day of culture, growth medium was removed from cells grown in roller bottles, and the cells were washed twice with PBS (Sigma, 120 mM NaCl, 2.7 mM KCl, 10 mM Na2 HPO4 --NaH2 PO4, pH=7.4). Cells were detached from the roller bottles by incubating for 15 minutes at 37° C. in a Tris-EDTA solution (10 mM Tris, 100 mM NaCl, 1 mM EDTA, pH=7.4). The cell suspension from each roller bottle was decanted into tared centrifuge tubes and kept on ice. An aliquot of each cell suspension was generally taken for cell counting. Cells were centrifuged at 3000×G for 5 min at 2°-4° C., washed with PBS and recentrifuged. The supernatant was decanted and the pellet weighed to determine the wet weight of cells. Cells were washed a final time in 40 vol 5 mM Tris-HCl, 5 mM EDTA, pH=7.7, and centrifuged at 40,000×G for 10 minutes. Cells were homogenized in 10 mL of 50 mM Tris-HCl, 5 mM EDTA (pH=7.4) and diluted to 40 mL/tube. Homogenates were centrifuged at 40,000×G for 10 minutes. The supernatant was decanted and the pellets rehomogenized in 50 mM Tris-HCl (pH=7.4) and centrifuged as before. The supernatant was decanted and the homogenate resuspended in 6.25 volumes (per gram wet weight) of 50 mM Tris-HCl and aliquots of the pooled homogenates frozen in liquid N2 and stored at -70° C. until the time of assay. Rat submaxillary glands were used for α-1A adrenoreceptors and were prepared essentially as described (Michel, A. D., Loury, D. N. and Whiting, R. L., Brit. J. Pharmacol. 98: 83-889 (1989)).
Receptor binding assays for α-1 adrenoreceptors were performed essentially as described by Greengrass and Bremner (Eur. J. Pharmacol. 55: 323-326 (1979)). […] Radioactivity was determined by standard liquid scintillation techniques. Data were analyzed as previously described (Hancock, A. A., Kyncl, J. J., Martin, Y. C. and DeBernardis, J. F., J Receptor Res. 8: 23-46 (1988)).

Test [2] deals with T2, α-1A adrenoreceptor (rat vas deferens) (Rattus norvegicus, UniProt P43140).
T2 construct: from tissue; host or cells: rat vas deferens
T2 sequence (P43140 1-466): T1 sequence (P43140 1-466)
The experiment in a line: Functional antagonism: inhibition of phenylephrine-induced contraction of rat vas deferens. The class given is cell-based. The text has this: (§1) Functional assays indicative of pharmacologically defined α-1 adrenoreceptors were used to further characterize compounds. Inhibition of phenylephrine (PE)-induced contraction of canine prostate smooth muscle can be correlated with α-1A adrenoreceptor activation. […] For each of these models, agonist dose response curves were repeated against increasing concentrations of test agent to derive a Schild plot [log ([…]) against log (molarity of test agent)] to determine the pA2.

The target of test [3] is T3, α-1A adrenoreceptor (canine prostate smooth muscle) (Canis lupus, UniProt A0A8I3NK63).
T3 construct: antagonism of phenylephrine-induced contraction (pA2, Schild)
T3 sequence (A0A8I3NK63 1-466): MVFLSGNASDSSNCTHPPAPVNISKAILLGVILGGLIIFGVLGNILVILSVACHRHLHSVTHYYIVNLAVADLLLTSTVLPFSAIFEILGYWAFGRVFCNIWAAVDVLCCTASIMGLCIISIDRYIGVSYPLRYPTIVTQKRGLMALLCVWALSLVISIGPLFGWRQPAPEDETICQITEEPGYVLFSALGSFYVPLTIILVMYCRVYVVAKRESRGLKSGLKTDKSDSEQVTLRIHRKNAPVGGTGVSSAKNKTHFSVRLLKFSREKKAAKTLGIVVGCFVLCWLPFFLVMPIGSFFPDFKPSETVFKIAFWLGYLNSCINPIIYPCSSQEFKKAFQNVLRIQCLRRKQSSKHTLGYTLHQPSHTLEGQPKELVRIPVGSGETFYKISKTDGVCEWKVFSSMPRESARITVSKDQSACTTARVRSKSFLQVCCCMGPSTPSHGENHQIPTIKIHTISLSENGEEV
The experiment in a line: Functional antagonism: inhibition of phenylephrine-induced contraction of canine prostate strips. It counts as cell-based. Conditions: Schild plot.
Text: Canine prostate strips were used in vitro as previously described (Hieble, J. P., Boyce, Caine, M., Fed Proc., 45: 2609-2614 (1986)), to determine antagonist potencies phenylephrine-induced contractions.
as §1
Canine prostate strips were used in vitro as previously described (Hieble, J. P., Boyce, A. J. and Caine, M., Fed. Proc., 45: 2609-2614 (1986)), to determine antagonist potencies against phenylephrine-induced contractions.

Test [4] deals with T4, α-1 Adrenoceptors (Rat Aorta) (Rattus norvegicus, UniProt P23944).
T4 construct: Rat Aorta; from tissue; host or cells: rat aorta
T4 sequence (P23944 1-561): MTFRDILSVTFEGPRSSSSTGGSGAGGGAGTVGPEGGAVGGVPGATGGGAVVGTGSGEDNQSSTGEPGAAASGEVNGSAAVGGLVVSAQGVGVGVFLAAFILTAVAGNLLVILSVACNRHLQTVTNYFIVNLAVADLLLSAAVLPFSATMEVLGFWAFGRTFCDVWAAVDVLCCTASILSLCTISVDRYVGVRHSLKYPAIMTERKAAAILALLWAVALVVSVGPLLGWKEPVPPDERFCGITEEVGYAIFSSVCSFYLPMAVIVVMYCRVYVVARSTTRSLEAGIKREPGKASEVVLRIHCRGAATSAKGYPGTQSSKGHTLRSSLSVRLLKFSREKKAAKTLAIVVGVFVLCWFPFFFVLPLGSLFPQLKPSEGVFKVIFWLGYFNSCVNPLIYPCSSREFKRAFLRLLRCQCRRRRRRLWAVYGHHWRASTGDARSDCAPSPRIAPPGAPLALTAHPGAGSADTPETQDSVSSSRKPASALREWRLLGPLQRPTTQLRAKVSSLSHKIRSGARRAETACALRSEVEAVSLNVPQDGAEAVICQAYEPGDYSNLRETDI
The experiment in a line: Functional antagonism at α-1 adrenoceptors, rat aorta. It counts as cell-based. The method, boiled down:
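Phenylephrine dose-response curves for contraction were repeated against increasing test-agent concentrations. pA2 was derived by Schild plot [[…] vs log molarity of test agent].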

The mark [5] stands for this setting: rat submaxillary gland, [3H]prazosin 0.2 nM, read-out: Radioligand Binding (Ki; nM) 1A (Rat).

As for `COc1cccc2c1[C@@H]1CCN(CCCCn3c(=O)[nH]c4c(sc5ccccc54)c3=O)C[C@H]1CO2` (relative stereo) [Example 87, 3-[4-((±)-trans-10-Methoxy-1,3,4,4a,5,10b-hexahydro-2H-[1]-benzopyrano[3,4-c]pyrido-3-yl)butyl]-[1]-benzthieno[3,2-d]pyrimidine-2,4(1H,3H)-dione hydrochloride], the Ki in test [1] came out at 0.371 nM. The Kb in test [2] was 2.14 nM.

The compound `COc1cccc2c1[C@@H]1CCN(CCCCn3c(=O)[nH]c4c(sc5cccnc54)c3=O)C[C@H]1CO2` (relative stereo) [Example 88, 3-[4-((±)-trans-10-Methoxy-1,3,4,4a,5,10b-hexahydro-2H-[1]-benzopyrano[3,4-c]pyrido-3-yl)butyl]-pyrido[2',3':4,5]thieno[3,2-d]pyrimidine-2,4(1H,3H)-dione hydrochloride] had a Ki in test [1] of 0.188 nM. Also, the Kb in test [2] was 1.82 nM. For the same compound, in test [3], the “In Vitro Characterization (pA2) Dog Prostate” value was 8.09.

For `COc1cc2[nH]c(=O)n(CCN3CC[C@H]4c5c(OC)cccc5OC[C@@H]4C3)c(=O)c2cc1OC` (relative stereo) [Example 91, 3-[2-((±)-trans-10-Methoxy-1,3,4,4a,5,10b-hexahydro-2H-[1]-benzopyrano[3,4-c]pyrido-3-yl)ethyl]-6,7-dimethoxy-quinazoline-2,4(1H,3H)-dione hydrochloride], the Ki in test [1] (setting [5]) is 0.102 nM.

Consider `COc1ccc2c(n1)sc1c(=O)n(CCCCN3C[C@@H]4COc5cccc(OC)c5[C@@H]4C3)c(=O)[nH]c12` [Example 33, hydrochloride], for which, in test [1] (setting [5]), the Ki was 0.811 nM. Also, the “In Vitro Characterization (pA2) Rat Vas” value in test [2] (rat vas deferens, phenylephrine-induced contraction, Schild plot) is on record as 9.02. Also, in test [4], the “In Vitro Characterization (pA2) Rat Aorta” value is given as 9.15.

For the origin of these results see patent US5891882A, “Benzopyranopyrrole and benzopyranopyridine α-1 adenergic compounds” (priority 1997, dated 1999).
